Patent publication US7163954B2, “Substituted naphthyl benzothiophene acids” (Wyeth, priority 2003, dated 2007)

Columns and labels:
[1] = target: T1, recombinant human plasminogen activator inhibitor-1 (PAI-1) (Homo sapiens, UniProt P05121); assay: Primary screen for the PAI-1 inhibition (residual tPA activity, Spectrozyme-tPA chromogenic substrate); assay type: biochemical; conditions: 25 μM test compound; inhibition of Plasminogen Activator Inhibitor-1
T1 construct: purchased Molecular Innovations, Royal Oak, Mich
Method: Test compounds are dissolved in DMSO at a final concentration of 10 mM, then diluted 100× in physiologic buffer. The inhibitory assay is initiated by the addition of the test compound (1–100 μM final concentration, !maximum DMSO concentration of 0.2%) in a pH 6.6 buffer containing 140 nM recombinant human plasminogen activator inhibitor-1 (PAI-1; Molecular Innovations, Royal Oak, Mich.). Following a 1 hour incubation at room temperature, 70 nM of recombinant human tissue plasminogen activator (tPA) is added, and the combination of the test compound, PAI-1 and tPA is incubated for an additional 30 minutes. Following the second incubation, Spectrozyme-tPA (American Diagnostica, Greenwich, Conn.), a chromogenic substrate for tPA, is added and absorbance read at 405 nm at 0 and 60 minutes. Relative PAI-1 inhibition is equal to the residual tPA activity in the presence of the test compound and PAI-1. Control treatments include the complete inhibition of tPA by PAI-1 at the molar ratio employed (2:1), and the absence of any effect of the test compound on tPA alone.

T1 sequence (P05121 24-402): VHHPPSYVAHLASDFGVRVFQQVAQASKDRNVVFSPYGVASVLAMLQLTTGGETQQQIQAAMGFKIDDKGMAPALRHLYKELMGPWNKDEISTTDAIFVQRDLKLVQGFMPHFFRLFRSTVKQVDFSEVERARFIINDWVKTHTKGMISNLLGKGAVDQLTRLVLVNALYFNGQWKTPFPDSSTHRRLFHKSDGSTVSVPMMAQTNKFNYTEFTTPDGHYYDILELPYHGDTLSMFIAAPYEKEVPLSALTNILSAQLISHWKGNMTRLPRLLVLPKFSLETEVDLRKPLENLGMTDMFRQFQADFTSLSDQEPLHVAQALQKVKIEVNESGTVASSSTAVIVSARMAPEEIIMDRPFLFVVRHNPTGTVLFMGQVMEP

Row | SMILES | inhibition at 25 µM [1] [%] | melting point [°C]
1 | CCCCC(=O)c1c(-c2ccc3c(Br)c(OCc4nnn[nH]4)ccc3c2)sc2ccccc12 [Compound 1, 1-{2-[5-Bromo-6-(1H-tetrazol-5-ylmethoxy)-naphthalen-2-yl]-benzo[b]thiophen-3-yl}-pentan-1-one] | 59 | 
2 | CCCCC(=O)c1c(-c2ccc3c(Br)c(OCC(=O)O)ccc3c2)sc2ccccc12 [Compound 2, [1-Bromo-6-(3-pentanoyl-benzo[b]thiophen-2-yl)-naphthalen-2-yloxy]-acetic acid] | 69 | 164 to 165
3 | O=C(Cc1ccccc1)c1c(-c2ccc3c(Br)c(OCc4nnn[nH]4)ccc3c2)sc2ccccc12 [Compound 3, 1-{2-[5-Bromo-6-(1H-tetrazol-5-ylmethoxy)-naphthalen-2-yl]-benzo[b]thiophen-3-yl}-2-phenyl-ethanone] | 52 | 
4 | O=C(O)COc1ccc2cc(-c3sc4ccccc4c3C(=O)Cc3ccccc3)ccc2c1Br [Compound 4, [1-Bromo-6-(3-phenylacetyl-benzo[b]thiophen-2-yl)-naphthalen-2-yloxy]-acetic acid] | 54 | 170 to 172
5 | CC(C)CC(=O)c1c(-c2ccc3c(Br)c(OCc4nnn[nH]4)ccc3c2)sc2ccccc12 [Compound 5, 1-{2-[5-Bromo-6-(1H-tetrazol-5-ylmethoxy)-naphthalen-2-yl]-benzo[b]thiophen-3-yl}-3-methyl-butan-1-one] | 84 | 
6 | CC(C)(C)CC(=O)c1c(-c2ccc3c(Br)c(OCC(=O)O)ccc3c2)sc2ccccc12 [Compound 6, {1-Bromo-6-[3-(3,3-dimethyl-butyryl)-benzo[b]thiophen-2-yl]-naphthalen-2-yloxy}-acetic acid] | 77 | 206 to 207
